Legend:
HCC827OR16 = experiment: Cell growth inhibition by SRB method; assay type: cell-based, human; settings: Homo sapiens, AZD9291-resistant line, 72 hrs exposure
Excerpt: (§1) Six human cancer cell lines have been used to evaluate effects of the compounds on proliferation of cancer cells. These cell lines include HCC827-P (or HCC827 parent cells), human non-small lung cancer cells, Parent NSCLC HCC827 cell line (which harbors EGFR gene amplification, Exon 19 (E19) deletion, and Exon 21 mutation (Wang, Ramakrishnan et al. 2010), and is an EGFRi sensitive cell line (Kim, Kim et al. 2010)); HCC827-TR16 (Tarceva-resistant HCC727 cell line), HCC827-OR16 (AZD9291-resistant HCC727 cell line), LNCaP (human prostate cancer cells—a hormonal-therapy sensitive cell line (Wang, Liu et al. 1997)); 22RV1 (human prostate cancer cells—a hormonal-therapy resistant cell line (Sramkoski, Pretlow et al. 1999)); and ACHN (human renal adenocarcinoma cells (Park, Jung et al. 2003)). LNCaP cells and 22RV1 cells were purchased from the American Type Culture Collection (Rockville, Md.) and others were gifts of friends.
(§2) To evaluate activities of new compounds on growth of EGFR-inhibitor-resistant cells, two EGFRi-resistant cell lines, i.e., HCC827-TR16 and HCC827-OR16 were established using a method described by Eberlein et al. (Eberlein, Stetson et al. 2015). […] Resistant cells were collected and stabilized after 5 weeks (cycle 5). […] The resistant cells were sorted using 96-well dishes by culturing cells with density of 0.1, 1, 10, and 100 cells per well.
(§3) All cell lines were maintained in RPMI-1640 (GIBCO, Gaithersburg, Md.) with 10% heat-inactivated bovine serum (FBS) (Wang, Ossowski et al. 2004).
(§4) Sulforhodamine B (SRB) was used to estimate cell growth as described previously (Skehan, Storeng et al. 1990). Briefly, cells grown exponentially were aliquoted into 96-well plates at a density of 2,500 to 5,000 cells/200 μl per well in RPMI 1640 medium containing 10% FBS. After twenty-four hours, the cells were exposed to indicated concentrations of tested compounds for 72 hrs or otherwise as indicated. The cells were then fixed with 10% trichloride acetic acid for 2 h at 4° C. The 10% trichloride acetic acid was removed, and the dishes were washed 5 times with tape water, and air-dried. The fixed and dried cells were then stained with 0.4% SRB in 1% acetic acid for 25 min, and the dishes were washed 5 times with 1% acetic acid and air-dried overnight. 200 μl of 10 mM of Tris buffer (pH 10.0) were added, and the dishes were rotated to completely dissolve the color. Absorbance at 570 nm, with a reference wavelength 690 nm, was measured on a 96-well microplate reader (SPECTRO Star^Nano, BMG Labtech). Mean, standard deviation (SD) and the percent of growth inhibition at each concentration point of the treatment were calculated. The percent of growth inhibition as defined as (1−T/C)×100 where T is the mean of the absorbance at 570 nm from the treatment, and C from control (drug vehicle only). IC50 was calculated using Sigma-plot software by regression of growth-concentration curve from each drug treatment.

HCC827P = experiment: Cell growth inhibition by SRB method; assay type: cell-based, human; settings: Homo sapiens; 72 hrs exposure, SRB
Excerpt: as §1, §2, §3, §4

HCC827-P = experiment: qRT-PCR expression of Caspase 3, Caspase 9 and p21; assay type: cell-based, human; settings: 24 h
Description: FIG. 10 depicts the effect of Reno647 on expressions of Caspase 3, Caspase 9 and p21 in HCC827-P and on Box, Bcl2, p53 and p21 in HCC827-OR16 cells. […] Total cellular RNA was extracted and cDNA was prepared followed by qRT-PCR using specific probes as described in the section of Materials and Methods. Tgene ΔCt value was normalized for GAPDH by calculating ΔCt=Ctgene−CtGAPDH per sample.
(§5) HCC827 P or other indicated cells at exponential growth phase were treated with indicated concentrations of compounds for 24 hours. Total cellular RNA was prepared from lysed tumor cells using an RNA Purification kit (ThermoFisher Scientific). The first-strand of cDNA was synthesized using a High Capacity cDNA reverse transcription kit (ThermoFisher Scientific) in PTC-100 Peltier Thermal Cycler PCR. The resultant cDNA (0.5-1 μL) was used in a 10 μl reaction by using Taqman Universal PCR Master Mix (ThermoFisher Scientific). The pre-designed primers and probe were purchased from Life Technologies and used for qPCR. Human GAPDH was used as an internal control. qPCR was performed using Applied Biosystems StepOne and StepOnePlus Real-Time PCR Systems according manufacturer's instructions. An initial PCR denaturation step was performed at 95° C. for 20 seconds. The general cycling stage for qPCR were as follows: denaturation at 95° C. for 1 second, annealing and extension at 60° C. for 20 seconds, repeat for 40 cycles. Tgene ΔCt value was normalized for GAPDH by calculating ΔCt=Ctgene−CtGAPDH per sample.

22RV1 = experiment: Cell growth inhibition by SRB method; assay type: cell-based, human; settings: Homo sapiens, 22Rv1, 72 h, 72 hrs exposure, SRB
Excerpt: as §1, §3, §4

ACHN = experiment: Cell growth inhibition by SRB method; assay type: cell-based, human; settings: Homo sapiens, ACHN, 72 hrs exposure
Excerpt: as §1, §3, §4

LNCaP = experiment: Cell growth inhibition by SRB method; assay type: cell-based, human; settings: Homo sapiens, LNCaP; 72 hrs exposure, SRB
Excerpt: as §1, §3, §4

PD-L1 = experiment: qRT-PCR expression of PD-L1 in HCC827-P cells; assay type: cell-based, human; settings: 1 μM, 24 hrs
Description: FIG. 11 depicts the effects of Reno647 on expression of PD-L1 in HCC827-P and HCC827-TR cells. HCC827-P and HCC827-TR cells at exponential growth phase were exposed to indicated concentration of Reno647 for 24 hrs. Total cellular RNA was extracted and cDNA was prepared followed by qRT-PCR using specific probes for PD-L1 and GAPDH (internal control) as described in the section of Materials and Methods. Tgene ΔCt value was normalized for GAPDH by calculating ΔCt=Ctgene−CtGAPDH per sample.
as §5, with “The general cycling stage for qPCR were as follows: denaturation at 95° C. for 1 second, annealing and extension at 60° C. for 20 seconds, repeat for 40 cycles. Tgene ΔCt value was normalized for GAPDH by calculating ΔCt=Ctgene−CtGAPDH per sample.” left out

HCC827TR16 = experiment: Cell growth inhibition by SRB method; assay type: cell-based; settings: Homo sapiens, Tarceva-resistant line, 72 hrs exposure
Excerpt: as §1, §2, §3, §4

IC50 (HCC827OR16): 380 nM | IC50 (HCC827P): 150 nM | p21 expression (HCC827-P; q-RT-PCR): significant induction | Caspase 3 expression (HCC827-P; qRT-PCR): moderate increase | IC50 (22RV1): ~500 nM | IC50 (ACHN): 1250 nM | IC50 (LNCaP): 1250 nM | IC50 (HCC827TR16): 1300 nM
SMILES: C#Cc1cccc(Nc2ncnc3cc(OCCOC)c(NC(=O)c4ccc(F)c([N+](=O)[O-])c4)cc23)c1 [Reno647, 4-Fluoro-N-[4-(3-ethynyl-phenylamino)-7-(2-methoxy-ethoxy)-quinazolin-6-yl]-3-nitro-benzamide]
Caspase 9 expression (HCC827-P; qRT-PCR): significant and concentration-dependent induction | reduction of PD-L1 expression (PD-L1): Over 93%
